Consider six compounds from ChEMBL document CHEMBL1145771 (Bioorg Med Chem Lett, 2003).

Assay [1] in a line: Inhibition of protein phosphatase 1 (PP1) was determined by standard phosphorylase a inhibition assay. Details: species or system Oryctolagus cuniculus.
A short description of assay [2]: Selectivity ratio for inhibition of Protein phosphatase 1 and Protein phosphatase 2A.

`CO[C@@H]([C@H](O)CC(=O)[C@@H](C)[C@@H](O)CC[C@@H](C)[C@@H]1O[C@]2(CC[C@@H](C)[C@H](CC[C@H](C)C(C)=O)O2)CC[C@@H]1C)[C@H](OC(=O)C[C@H](O)C1=C(C)C(=O)OC1=O)C(C)C` returned an IC50 in assay [1] of 0.13 µM. That is a sub-micromolar value.
`CO[C@H]([C@H](O)CC(=O)[C@@H](C)[C@@H](O)CC[C@@H](C)[C@@H]1O[C@]2(CC[C@@H](C)[C@H](CC[C@H](C)C(C)=O)O2)CC[C@@H]1C)[C@H](OC(=O)C[C@@H](O)C1=C(C)C(=O)OC1=O)C(C)C` [TAUTOMYCIN] registered an IC50 in assay [1] of 1.9 µM.
`CO[C@@H]([C@H](O)CC(=O)[C@@H](C)[C@@H](O)CC[C@@H](C)[C@@H]1O[C@]2(CC[C@@H](C)[C@H](CC[C@H](C)C(C)=O)O2)CC[C@@H]1C)[C@H](OC(=O)C[C@@H](O)/C=C(\C)C(=O)O)C(C)C`: the Selectivity ratio in assay [2] came to 1.9. In assay [1], this compound yielded an IC50 of 2.1 µM.
Turning to `CO[C@@H]([C@H](O)CC(=O)[C@@H](C)[C@@H](O)CC[C@@H](C)[C@@H]1O[C@]2(CC[C@@H](C)[C@H](CC[C@H](C)C(C)=O)O2)CC[C@@H]1C)[C@H](OC(=O)CCCP(=O)(O)O)C(C)C`, the Selectivity ratio in assay [2] was 2. In assay [1], this compound showed an IC50 of 150 µM.
Consider `CO[C@@H]([C@H](O)CC(=O)[C@@H](C)[C@@H](O)CC[C@@H](C)[C@@H]1O[C@]2(CC[C@@H](C)[C@H](CC[C@H](C)C(C)=O)O2)CC[C@@H]1C)[C@H](OC(=O)C[C@](C)(O)C(=O)O)C(C)C`, for which, in assay [2], the Selectivity ratio stood at 1.5. For the same compound, inhibition in assay [1] was half-maximal at 19 µM (IC50).
`CO[C@@H]([C@H](O)CC(=O)[C@@H](C)[C@@H](O)CC[C@@H](C)[C@@H]1O[C@]2(CC[C@@H](C)[C@H](CC[C@H](C)C(C)=O)O2)CC[C@@H]1C)[C@H](OC(=O)C[C@@](C)(O)C(=O)O)C(C)C`: the Selectivity ratio in assay [2] was 1.3. The IC50 in assay [1] was determined as 80 µM.
